These results are taken from patent US10626112B2, “Heterocyclic sulfonamide derivative and medicine comprising same” (EA PHARMA CO., LTD., priority 2014, dated 2020).

Sequence of human TRPA1 (O75762 whole entry): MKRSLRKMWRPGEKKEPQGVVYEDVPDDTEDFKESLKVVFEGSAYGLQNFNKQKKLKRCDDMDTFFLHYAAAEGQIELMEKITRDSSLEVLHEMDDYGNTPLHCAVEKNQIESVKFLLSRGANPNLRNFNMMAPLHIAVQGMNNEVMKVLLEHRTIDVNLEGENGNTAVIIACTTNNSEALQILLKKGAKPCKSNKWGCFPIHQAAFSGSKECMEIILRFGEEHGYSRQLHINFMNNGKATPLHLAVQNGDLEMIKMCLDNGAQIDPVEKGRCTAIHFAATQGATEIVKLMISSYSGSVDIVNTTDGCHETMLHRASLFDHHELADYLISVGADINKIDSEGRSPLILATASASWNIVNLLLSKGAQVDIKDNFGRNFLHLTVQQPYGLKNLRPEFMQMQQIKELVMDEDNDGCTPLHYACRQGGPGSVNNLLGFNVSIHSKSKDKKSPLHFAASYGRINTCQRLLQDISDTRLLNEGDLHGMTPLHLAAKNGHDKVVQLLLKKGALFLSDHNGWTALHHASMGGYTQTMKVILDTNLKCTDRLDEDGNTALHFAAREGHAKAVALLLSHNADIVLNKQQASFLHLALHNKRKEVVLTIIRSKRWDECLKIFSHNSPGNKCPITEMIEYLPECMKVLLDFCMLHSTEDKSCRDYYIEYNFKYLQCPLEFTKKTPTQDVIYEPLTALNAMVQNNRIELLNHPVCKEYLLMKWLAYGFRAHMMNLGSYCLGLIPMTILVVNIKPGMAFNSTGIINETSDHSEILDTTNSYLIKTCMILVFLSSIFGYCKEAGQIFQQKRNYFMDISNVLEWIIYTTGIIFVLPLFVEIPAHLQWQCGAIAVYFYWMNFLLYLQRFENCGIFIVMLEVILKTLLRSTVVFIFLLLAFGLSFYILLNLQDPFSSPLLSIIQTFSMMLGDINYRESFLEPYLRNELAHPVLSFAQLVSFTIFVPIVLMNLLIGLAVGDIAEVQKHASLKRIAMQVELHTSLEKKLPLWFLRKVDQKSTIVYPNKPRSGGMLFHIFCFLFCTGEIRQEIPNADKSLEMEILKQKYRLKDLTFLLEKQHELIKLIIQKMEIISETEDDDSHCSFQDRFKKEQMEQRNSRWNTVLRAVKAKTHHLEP

This assay addresses human TRPA1 (Homo sapiens (Human), UniProt O75762). As to the kind of experiment: Measurement of TRPA1 antagonist activity (1): intracellular calcium increase. To be noted: 293T cells transfected with human TRPA1 expression plasmid; allylisothiocyanate 20 μM stimulation; intracellular calcium fluorescence; read-out: hTRPA1 IC50. It counts as cell-based. The text has this:
Measurement of TRPA1 Antagonist Activity (1)
Human TRPA1 Expression Plasmid
As cDNA encoding human TRPA1 (GenBank accession No. […]), a commercially available product was purchased (manufactured by Kazusa DNA Research Institute, clone No.: pFN21AB7348, item No.: FHC07217). Using this as a template, full-length human TRPA1 gene was amplified using the primer sequences shown below, by reaction using DNA polymerase (manufactured by Stratagene, trade name: PfuUltra High-Fidelity DNA Polymerase).
A recognition site (underlined) of restriction enzyme HindIII was added to the 5′ side, and XbaI site (underlined) was added to the 3′ side, and GTT of the template sequence was changed to termination codon TAG (bold). The obtained double stranded DNA was enzyme-digested with HindIII and XbaI, and introduced into the multicloning site of expression plasmid pcDNA3.1/zeo(+) (manufactured by Invitrogen) to construct a human TRPA1 expression plasmid.
Human embryonic kidney-derived 293T cells were cultured in Dulbecco's Modified Eagle Medium containing 10% fetal bovine serum, 10 unit penicillin, and 10 μg streptomycin, plated on a petri dish having a diameter of 10 cm at 3×10^6 cells, and cultured for 24 hr in a CO2 incubator. A reduced serum medium (manufactured by Invitrogen, trade name: OPTI-MEM, 600 μL), a gene transfer reagent (manufactured by Mirus Bio, trade name: Mirus TransIT-293, 18 μL), and human TRPA1 expression plasmid (6 μg) were mixed, the total amount of the mixture was added to the cells on the petri dish to allow for gene transfer. The cells were recovered about for 8 hr later, plated on a poly-D-lysine coated 384 well black/clear bottom plate at 12,000 cells/well, and cultured overnight.
Measurement of Intracellular Calcium Increase
The 384 well plate was recovered, and the medium was removed. A calcium-bonded fluorescent indicator (manufactured by Molecular Device, trade name: Calcium4 Assay Kit, 38 μL) dissolved in assay buffer (1×HBSS, 20 mM HEPES, pH 7.2) was added, and the cells were stained in a CO2 incubator for 1 hr. The cells were taken out at room temperature, stood for not less than 15 min, a test substance (10 μL) was added by a platereader FDSS7000 (Hamamatsu Photonics K.K.) equipped with a 384ch dispenser. After 10 min, allylisothiocyanate (12 μL) was further added at a final concentration of 20 μM, and changes in the relative fluorescence intensity after addition of allylisothiocyanate were measured for 5 min.
Test Substance Preparation
The test substance was dissolved in dimethyl sulfoxide and serially diluted with an assay buffer containing 0.1% bovine serum albumin (1×HBSS, 20 mM HEPES, pH 7.2) to a 4.8-fold concentration of the evaluation concentration. Allylisothiocyanate, which is a known TRPA1 activator, was dissolved in dimethyl sulfoxide to 100 mM, and further diluted 5-fold (100 μM) of the final concentration, like the test substance.
Calculation of Antagonist Activity
Under the test substance-free conditions, the maximum variation range of the fluorescence intensity before and after allylisothiocyanate stimulation was defined to be 100% activity rate, and the variation range before and after buffer stimulation was defined as 0% activity rate. The activity rate on addition of the test substance was determined, and the numerical value obtained by subtracting the activity rate from 100 was defined to be an inhibitory rate. IC50, which is the concentration of the test substance necessary for reaching the 50% inhibitory rate, was calculated from the sigmoid approximate curve by a spreadsheet software Excel-Fit.
For orientation: Calcium assays in cells follow changes in intracellular calcium, usually with a dye or a luminescent sensor.
Consider `N#Cc1ccc(COc2cc(F)cc(CNC(=O)[C@@H]3CCCN3S(=O)(=O)c3cc4cc(F)ccc4o3)c2)cc1` [Example 36, (2S)-N-[[3-[(4-cyanophenyl)methoxy]-5-fluoro-phenyl]methyl]-1-(5-fluorobenzofuran-2-yl)sulfonyl-pyrrolidine-2-carboxamide], for which the half-maximal inhibitory concentration (IC50) (in general, the concentration at which inhibition is half-maximal) came to 1.5 nM.
The figure for `O=C(NCc1cccc(OCc2ccccc2)c1)[C@@H]1CCCN1S(=O)(=O)c1cc2ccccc2o1` [Example 37, (2S)-1-(benzofuran-2-ylsulfonyl)-N-[(3-benzyloxyphenyl)methyl]pyrrolidine-2-carboxamide] is 14 nM; for `O=C(NCc1cccc(OCc2ccc(C(F)(F)F)cc2)c1)[C@@H]1CCCN1S(=O)(=O)c1cc2ccccc2o1` [Example 38, (2S)-1-(benzofuran-2-ylsulfonyl)-N-[[3-[[4-(trifluoromethyl)phenyl]methoxy]-phenyl]methyl]pyrrolidine-2-carboxamide] it is 9.1 nM.
Under `O=C(NCc1cccc(OCc2ccc(C(F)(F)F)cc2)c1)[C@@H]1CCCN1S(=O)(=O)c1cc2cccc(F)c2o1` [Example 39, (2S)-1-(7-fluorobenzofuran-2-yl)sulfonyl-N-[[3-[[4-(trifluoromethyl)phenyl]methoxy]-phenyl]methyl]pyrrolidine-2-carboxamide] stands 190 nM.
The figure for `O=C(NCc1cccc(OCc2ccc(C(F)(F)F)cc2)c1)[C@@H]1CCCN1S(=O)(=O)c1cc2ccc(F)cc2o1` [Example 40, (2S)-1-(6-fluorobenzofuran-2-yl)sulfonyl-N-[[3-[[4-(trifluoromethyl)phenyl]methoxy]-phenyl]methyl]pyrrolidine-2-carboxamide] is 96 nM; for `O=C(NCc1cccc(OCc2ccc(C(F)(F)F)cc2)c1)[C@@H]1CCCN1S(=O)(=O)c1cc2c(F)cccc2o1` [Example 42, (2S)-1-(4-fluorobenzofuran-2-yl)sulfonyl-N-[[3-[[4-(trifluoromethyl)phenyl]methoxy]-phenyl]methyl]pyrrolidine-2-carboxamide] it is 7.1 nM.
Consider `O=C(NCc1cccc(OCc2ccccc2)c1)[C@@H]1CCCN1S(=O)(=O)c1cc2cc(F)ccc2o1` [Example 43, (2S)-N-[(3-benzyloxyphenyl)methyl]-1-(5-fluorobenzofuran-2-yl)sulfonyl-pyrrolidine-2-carboxamide], for which the concentration for half-maximal inhibition (IC50) turned out to be 1.6 nM.
The figure for `O=C(NCc1cccc(OCc2ccc(C(F)(F)F)cc2)c1)[C@@H]1C=CCN1S(=O)(=O)c1cc2ccccc2o1` [Example 44, (2S)-1-(benzofuran-2-ylsulfonyl)-N-[[3-[[4-(trifluoromethyl)phenyl]methoxy]-phenyl]methyl]-2,5-dihydropyrrole-2-carboxamide] is 1.7 nM.
Under `O=C(NCc1cccc(OCc2ccc(C(F)(F)F)cc2)c1)[C@@H]1[C@@H](O)CCN1S(=O)(=O)c1cc2ccccc2o1` [Example 45, (2S,3S)-1-(benzofuran-2-ylsulfonyl)-3-hydroxy-N-[[3-[[4-(trifluoromethyl)phenyl]methoxy]-phenyl]methyl]pyrrolidine-2-carboxamide] stands 35 nM; under `O=C(NCc1cccc(OCc2ccc(C(F)(F)F)cc2)c1)[C@@H]1C[C@@H](O)CN1S(=O)(=O)c1cc2ccccc2o1` [Example 46, (2S,4R)-1-(benzofuran-2-ylsulfonyl)-4-hydroxy-N-[[3-[[4-(trifluoromethyl)phenyl]methoxy]-phenyl]methyl]pyrrolidine-2-carboxamide], 130 nM.
As to `O=C(NCc1cccc(OCc2ccc(C(F)(F)F)cc2)c1)[C@@H]1CC(F)(F)CN1S(=O)(=O)c1cc2ccccc2o1` [Example 47, (2S)-1-(benzofuran-2-ylsulfonyl)-4,4-difluoro-N-[[3-[[4-(trifluoromethyl)phenyl]methoxy]-phenyl]methyl]pyrrolidine-2-carboxamide], the half-inhibitory concentration (IC50) came out at 24 nM.
With `O=C(NCc1cccc(OCc2ccc(C(F)(F)F)cc2)c1)[C@@H]1CCN1S(=O)(=O)c1cc2ccccc2o1` [Example 48, (2S)-1-(benzofuran-2-ylsulfonyl)-N-[[3-[[4-(trifluoromethyl)phenyl]methoxy]-phenyl]methyl]azetidine-2-carboxamide], the IC50 came out at 6.9 nM.
Under `C[C@H](NS(=O)(=O)c1cc2cc(F)ccc2o1)C(=O)NCc1cccc(OCc2ccc(C(F)(F)F)cc2)c1` [Example 49, (2S)-2-[(5-fluorobenzofuran-2-yl)sulfonylamino]-N-[[3-[[4-(trifluoromethyl)phenyl]methoxy]-phenyl]methyl]propanamide] stands 18 nM; under `O=C(NCc1ccc(Oc2cccc(C(F)(F)F)c2)cc1)[C@@H]1CCCN1S(=O)(=O)c1cc2ccccc2o1` [Example 50, (2S)-1-(benzofuran-2-ylsulfonyl)-N-[[4-[3-(trifluoromethyl)phenoxy]phenyl]-methyl]pyrrolidine-2-carboxamide], 160 nM; under `O=C(NCc1ccc(Oc2cccc(C(F)(F)F)c2)cc1)[C@@H]1CCCN1S(=O)(=O)c1cc2cc(F)ccc2o1` [Example 51, (2S)-1-(5-fluorobenzofuran-2-yl)sulfonyl-N-[[4-[3-(trifluoromethyl)phenoxy]phenyl]-methyl]pyrrolidine-2-carboxamide], 19 nM.
The figure for `O=C(NCc1cccc(Oc2ccc(C(F)(F)F)cc2)c1)[C@@H]1CCCN1S(=O)(=O)c1cc2ccccc2o1` [Example 52, (2S)-1-(benzofuran-2-ylsulfonyl)-N-[[3-[4-(trifluoromethyl)phenoxy]phenyl]-methyl]pyrrolidine-2-carboxamide] is 32 nM; for `O=C(NCc1cccc(Oc2ccc(C(F)(F)F)cc2)c1)[C@@H]1CCCN1S(=O)(=O)c1cc2cc(F)ccc2o1` [Example 53, (2S)-1-(5-fluorobenzofuran-2-yl)sulfonyl-N-[[3-[4-(trifluoromethyl)phenoxy]phenyl]-methyl]pyrrolidine-2-carboxamide] it is 2.7 nM.
As to `O=C(NCc1cccc(Oc2ccc(C(F)(F)F)nc2)c1)[C@@H]1CCCN1S(=O)(=O)c1cc2ccccc2o1` [Example 54, (2S)-1-(benzofuran-2-ylsulfonyl)-N-[[3-[[6-(trifluoromethyl)-3-pyridyl]oxy]phenyl]methyl]-pyrrolidine-2-carboxamide], the half-inhibitory concentration (IC50) came out at 9 nM.
The figure for `O=C(NCc1ccc(Oc2ccnc(C(F)(F)F)c2)cc1)[C@@H]1CCCN1S(=O)(=O)c1cc2ccccc2o1` [Example 55, (2S)-1-(benzofuran-2-ylsulfonyl)-N-[[4-[[2-(trifluoromethyl)-4-pyridyl]oxy]phenyl]methyl]-pyrrolidine-2-carboxamide] is 88 nM; for `O=C(NCc1ccc(Oc2ccnc(C(F)(F)F)c2)cc1)[C@@H]1CCCN1S(=O)(=O)c1cc2cc(F)ccc2o1` [Example 56, (2S)-1-(5-fluorobenzofuran-2-yl)sulfonyl-N-[[4-[[2-(trifluoromethyl)-4-pyridyl]oxy]phenyl]methyl]-pyrrolidine-2-carboxamide] it is 21 nM; for `O=C(NCc1cccc(SCc2ccccc2)c1)[C@@H]1CCCN1S(=O)(=O)c1cc2ccccc2o1` [Example 57, (2S)-1-(benzofuran-2-ylsulfonyl)-N-[(3-benzylsulfanylphenyl)methyl]pyrrolidine-2-carboxamide] it is 16 nM.
